Data from US10758467B2, “Highly substantive water-soluble UV absorbers and process for preparation thereof” (GALAXY SURFACTANTS LTD., priority 2018, dated 2020).

Tests used:
[1] = UV absorption (molar extinction coefficient); type: physicochemical
[2] = Surface-active properties (surface tension of water, CMC); type: physicochemical
Experimental: They reduce the surface tension of water from 72 Mn/m to 35 Mn/m at 1.0% concentration, at 30° C. These quaternized UV absorbers behave like cationic surface active agents and can be easily titrated against an anionic surfactant as a standard for two-phase titration for the determination of active matter.
Critical micelle concentration at 25° C. is 2.29×10^−3 mM

[3] = Zeta potential (Zetasizer Nano, Malvern) and charge density; type: physicochemical; conditions: for Zeta potential: 1% dispersion
Text: Zeta potential of 1% dispersion of doubly quaternized UV absorber, Formula I, R═C18H37 and R1═OCH3 is found to be […] (Zetasizer Nano, Malvern). […] Also the high zeta potential (+46 mV) ensures the stability of colloidal formulations.
Molar extinction coefficient, ∈, in water: 19,700 mol^−1cm^−1 at 307 nm. Zeta potential: +46 mV, Charge density: 0.3066 meq/gram

[4] = system: Propionibacterium acnesMTCC 1951; experiment: Minimum growth inhibitory concentration; type: cell-based, Propionibacterium acnes
Text: (§1) The doubly quaternized UV absorbers of Formula I (R═C8H17 to C22H45) according to the invention show decent antimicrobial properties. The minimum growth inhibitory concentrations against G +ve, G −ve bacteria and against the yeast for two compounds of Formula I of Example 3 and Example 4 are given in the Table III. This antimicrobial property is useful for preservation of personal care formulations. The antimicrobial activity against dandruff causing microorganism, Malassezia furfur is useful for hair care applications.

[5] = system: Candida albicans ATCC 10231; experiment: Minimum growth inhibitory concentration; type: cell-based
Text: as §1

[6] = system: Escherichia coli ATCC 10142; experiment: Minimum growth inhibitory concentration; type: cell-based
Text: as §1

[7] = system: Malassezia furfur MTCC 1374; experiment: Minimum growth inhibitory concentration; type: cell-based
Text: as §1

[8] = system: Pseudomonas aeruginosa Immune type IV; experiment: Minimum growth inhibitory concentration; type: cell-based
Text: as §1

[9] = system: Staphylococcus aureus ATCC6538; experiment: Minimum growth inhibitory concentration; type: cell-based
Text: as §1

Compound	minimum growth inhibitory concentration [4]	minimum growth inhibitory concentration [5]	minimum growth inhibitory concentration [6]	minimum growth inhibitory concentration [7]	minimum growth inhibitory concentration [8]	minimum growth inhibitory concentration [9]	other results
COc1ccc(C=CC(=O)NCCCN(C)C)cc1 [Example 1, p-methoxycinnamido propyldimethylamine]	–	–	–	–	–	–	Molar extinction coefficient, ∈ ([1]; in methanol, at 290 nm): 24,224
CCCCCCCCCCCCCCCCCC[N+](C)(C)CC(O)C[N+](C)(C)CCCNC(=O)/C=C/c1ccc(OC)cc1 (stereo not shown) [Example 4, p-methoxy cinnamidopropyl (2-hydroxypropyl stearyl dimethyl ammonium chloride) dimonium chloride]	0.4%	0.3%	0.3%	0.6%	0.4%	0.2%	Surface effectiveness [2]: 34.2 mN/m; surface efficiency (−log C20) [2]: 6.23; Critical micelle concentration ([2]; at 25° C.): 0.00229 mM; Charge density [3]: 0.3066 meq/gram; Zeta potential [3]: +46 mV; Zeta potential ([3]; listed as Formula I, R═C18H37 and R1═OCH3): +47 mV; Molar extinction coefficient, ∈ ([1]; in water, at 307 nm): 19,700 mol^−1cm^−1
CCCCCCCCCCCC[N+](C)(C)CC(O)C[N+](C)(C)CCCNC(=O)C=Cc1ccc(OC)cc1.[Cl-].[Cl-] (stereo not shown) [Example 3, p-methoxy cinnamidopropyl (2-hydroxypropyl lauryl dimethyl ammonium chloride) dimonium chloride]	0.5%	0.3%	0.4%	0.5%	0.4%	0.3%	Molar extinction coefficient, ∈ ([1]; in water, at 305 nm): 19,500 mol^−1cm^−1
COc1ccc(C=CC(=O)NCCC[N+](C)(C)CC(O)C[N+](C)(C)C)cc1.[Cl-].[Cl-] (stereo not shown) [Example 2, p-methoxy cinnamidopropyl (2-hydroxypropyl trimethyl ammonium chloride) dimonium chloride]	–	–	–	–	–	–	Molar extinction coefficient, ∈ ([1]; in water, at 290 nm): 22,000 mol^−1cm^−1
